Measurements from publication PMC6273807, “Identification of Selective ERRγ Inverse Agonists” (Molecules, 2016).

Columns and labels:
CYP1A2 = biological target: T1, CYP1A2 (Homo sapiens, UniProt P05177); test: CYP inhibition assay, cocktail, human liver microsomes (phenacetin O-deethylase); format: in vitro ADME; conditions: 10 μM, activity in presence of inhibitor as % of control
T1 sequence (P05177 1-516): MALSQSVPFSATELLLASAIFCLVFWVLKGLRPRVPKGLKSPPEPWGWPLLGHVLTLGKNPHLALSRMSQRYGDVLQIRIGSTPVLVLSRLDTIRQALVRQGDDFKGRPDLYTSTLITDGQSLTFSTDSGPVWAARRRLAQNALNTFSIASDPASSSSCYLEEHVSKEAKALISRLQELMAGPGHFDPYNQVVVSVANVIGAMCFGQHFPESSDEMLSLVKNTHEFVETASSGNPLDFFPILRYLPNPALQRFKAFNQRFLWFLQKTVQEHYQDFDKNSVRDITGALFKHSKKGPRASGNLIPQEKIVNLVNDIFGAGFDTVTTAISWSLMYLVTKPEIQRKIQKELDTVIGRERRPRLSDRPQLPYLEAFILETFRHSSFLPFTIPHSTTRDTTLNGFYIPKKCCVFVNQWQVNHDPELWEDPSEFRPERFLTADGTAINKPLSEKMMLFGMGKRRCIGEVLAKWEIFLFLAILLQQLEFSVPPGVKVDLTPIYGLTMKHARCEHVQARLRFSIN

CYP2C9 = CYP2C9 (Homo sapiens, UniProt P11712); test: CYP inhibition assay, cocktail, human liver microsomes (tolbutamide 4-hydroxylase); format: in vitro ADME; conditions: 10 μM, human liver microsomes; activity in presence of inhibitor as % of control
Chain of CYP2C9 (P11712 whole entry): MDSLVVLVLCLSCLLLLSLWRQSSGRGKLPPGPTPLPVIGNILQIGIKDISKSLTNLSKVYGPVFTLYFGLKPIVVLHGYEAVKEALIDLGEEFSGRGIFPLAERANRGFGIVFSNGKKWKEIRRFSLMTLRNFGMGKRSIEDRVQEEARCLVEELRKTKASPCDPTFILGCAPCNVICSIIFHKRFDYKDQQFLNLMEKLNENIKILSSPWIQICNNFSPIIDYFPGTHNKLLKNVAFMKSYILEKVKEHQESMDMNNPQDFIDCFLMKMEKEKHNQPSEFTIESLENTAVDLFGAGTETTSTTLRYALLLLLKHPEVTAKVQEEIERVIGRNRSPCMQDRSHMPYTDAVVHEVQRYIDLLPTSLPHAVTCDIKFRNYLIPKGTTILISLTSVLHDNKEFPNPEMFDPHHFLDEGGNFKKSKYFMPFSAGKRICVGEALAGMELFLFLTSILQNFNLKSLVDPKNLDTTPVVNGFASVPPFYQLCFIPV

CYP2C19 = CYP2C19 (Homo sapiens, UniProt P33261); test: CYP inhibition assay, cocktail, human liver microsomes (S-mephenytoin 4-hydroxylase); format: in vitro ADME; conditions: 10 μM, activity in presence of inhibitor as % of control
Chain of CYP2C19 (P33261 whole entry): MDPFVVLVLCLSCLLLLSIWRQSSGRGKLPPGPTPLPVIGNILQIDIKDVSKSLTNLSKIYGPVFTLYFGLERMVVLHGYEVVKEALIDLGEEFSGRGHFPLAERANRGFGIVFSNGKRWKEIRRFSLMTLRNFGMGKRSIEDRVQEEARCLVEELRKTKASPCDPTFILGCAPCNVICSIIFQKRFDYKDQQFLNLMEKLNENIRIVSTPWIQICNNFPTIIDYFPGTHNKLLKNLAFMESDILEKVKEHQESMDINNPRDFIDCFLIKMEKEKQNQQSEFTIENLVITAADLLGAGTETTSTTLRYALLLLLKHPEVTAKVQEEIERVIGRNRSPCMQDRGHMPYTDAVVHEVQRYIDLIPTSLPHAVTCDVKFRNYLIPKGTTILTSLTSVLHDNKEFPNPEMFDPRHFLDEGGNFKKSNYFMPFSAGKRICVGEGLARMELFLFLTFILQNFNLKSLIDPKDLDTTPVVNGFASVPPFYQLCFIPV

CYP2D6 = CYP2D6 (Homo sapiens, UniProt P10635); test: CYP inhibition assay, cocktail, human liver microsomes (dextromethorphan O-demethylase); format: in vitro ADME; conditions: 10 μM, activity in presence of inhibitor as % of control
Chain of CYP2D6 (P10635 whole entry): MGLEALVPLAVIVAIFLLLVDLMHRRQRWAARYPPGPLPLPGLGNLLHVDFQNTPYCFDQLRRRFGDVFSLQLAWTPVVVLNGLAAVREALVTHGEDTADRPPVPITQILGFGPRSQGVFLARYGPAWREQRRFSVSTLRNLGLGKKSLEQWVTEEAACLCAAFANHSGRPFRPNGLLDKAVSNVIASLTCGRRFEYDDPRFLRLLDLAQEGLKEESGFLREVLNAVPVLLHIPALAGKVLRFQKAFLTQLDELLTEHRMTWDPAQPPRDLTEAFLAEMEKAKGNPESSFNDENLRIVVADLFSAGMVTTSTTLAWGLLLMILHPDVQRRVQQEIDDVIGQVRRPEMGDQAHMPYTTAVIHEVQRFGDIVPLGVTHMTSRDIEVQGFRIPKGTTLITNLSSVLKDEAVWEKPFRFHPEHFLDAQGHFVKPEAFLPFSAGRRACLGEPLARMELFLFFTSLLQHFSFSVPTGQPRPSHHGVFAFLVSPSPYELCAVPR

CYP3A = test: CYP inhibition assay, cocktail, human liver microsomes (midazolam 1'-hydroxylase); format: in vitro ADME; conditions: 10 μM, activity in presence of inhibitor as % of control
[1] = Metabolic stability assay in liver microsomes (human); format: in vitro ADME; conditions: 1 μM, 30 min, 37 °C, NADPH
Protocol: (§1) The metabolic stability assay was performed by incubation of human and selected animal liver microsomes (most often dog, rat and mouse), at 37 °C with a test compound at a final concentration of 1 μM, in the presence of 0.5 mg/mL microsomal protein and NADPH regeneration system, in a total volume of 100 μL of 100 mM phosphate buffer, pH 7.4. The incubation was started by the addition of NADPH regeneration system and terminated with adding 40 μL of ice-cold acetonitrile at 0 and 30 min. […] Incubations terminated prior to addition of NADPH regeneration system (time point 0 min) were used as standards, defined as 100%. Percent of the parent compound remaining was calculated by comparing peak areas.

[2] = Metabolic stability assay in liver microsomes (dog); format: in vitro ADME; conditions: 1 μM, 30 min, 37 °C, NADPH
Protocol: as §1

[3] = Metabolic stability assay in liver microsomes (rat); format: in vitro ADME; conditions: 1 μM, 30 min, 37 °C, NADPH
Protocol: as §1

[4] = Metabolic stability assay in liver microsomes (mouse); format: in vitro ADME; conditions: 1 μM, 30 min, 37 °C, NADPH
Protocol: as §1

ERRγ [5] = biological target: T2, ERRγ (Homo sapiens, UniProt P62508); test: TR-FRET (LanthaScreen) ERRγ binding assay; conditions: Table 1 screening, 2-fold serial dilution from 10 μM; for IC50: read-out: ERRγ, IC50 (binding inhibition of ERRγ binding activity)
T2 construct: purchased Life Technologies
T2 sequence (P62508 233-457 limits assumed): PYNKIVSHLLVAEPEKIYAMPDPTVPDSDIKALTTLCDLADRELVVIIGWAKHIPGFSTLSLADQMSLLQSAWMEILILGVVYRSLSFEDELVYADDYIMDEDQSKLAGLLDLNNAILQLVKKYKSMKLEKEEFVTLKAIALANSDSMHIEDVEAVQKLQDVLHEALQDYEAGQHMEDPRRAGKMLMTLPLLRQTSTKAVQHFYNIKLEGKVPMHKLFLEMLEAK
Protocol: Initials creening was conducted using a well established TR-FRET based ERRγ binding assay as described in the Experimental section at a concentration of 10 μM. Serial dilutions of the synthesized compounds were used to calculate IC50 values for the binding affinity with ERRγ.
ERRγ binding assay was conducted with Lantascreen assay system (Life Technologies, Grand Island, NY, USA), which was based on TR-FRET, followed by manufacturer’s instruction. Briefly, compounds were serially diluted with 2-fold staring from 10 μM and 10 μL of each diluent was added in 384 well plate. Then, GST-conjugated ERRγ LBD (ligand-binding domain) was added to be 5 nM. Next, the mixture of fluorescien-conjugated coactivator PGC1a (final concentration to be 500 nM) and Tb-a-GST antibody (final concentration to be 5 nM) was added. The reaction mixture was incubated at rt in dark state for 1 h.

ERRγ [6] = biological target: T3, ERRγ (Homo sapiens, UniProt P62508); test: ERRγ functional assay: GAL4-ERRγ luciferase reporter gene in AD293 cells; format: cell-based; conditions: for ERRγ functional activity in the cellular system (in words): 10 μM, reporter-gene assay, compared with control ligand 4; for inhibition at 10 µM: AD293, 24 h, screening concentration of 10 μM, read-out: transcriptional repression
T3 sequence (P62508 233-458 limits assumed): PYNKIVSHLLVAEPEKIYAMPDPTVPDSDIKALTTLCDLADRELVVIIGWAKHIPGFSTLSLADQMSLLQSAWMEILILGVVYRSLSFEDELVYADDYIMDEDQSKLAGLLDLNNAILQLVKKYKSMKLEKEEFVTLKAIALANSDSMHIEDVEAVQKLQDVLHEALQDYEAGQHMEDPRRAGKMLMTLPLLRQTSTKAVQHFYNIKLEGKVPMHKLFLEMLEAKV
Protocol: Along with the binding assay campaign, functional activity was determined in order to validate the utility of the binding affinity in a cellular context as described in the Experimental.
Figure 2 Cell based reporter-gene assay screening of 16 analogs ERRγ binding activity in cell was measured by luciferase activity using co-transfection system with GAL4-ERRγ and pFR-luciferase reporter gene.
AD293 cells were cultured in Dulbecco’ modified Eagle medium (DMEM) High glucose supplemented with 0.5% FBS (Hyclone, Logan, UT, USA). After 24 h, culture media was changed with DMEM High glucose containing 10% FBS. DNA constructs, which includes pCMX-Gal4-ERRγ, pFR-luciferase reporter plasmid, pCMV-β-gal were transiently transfected into AD293 cells using TransIT-LT1 transfection reagent (Mirus, Madison, WI, USA) for 24 h. Then, transfected cells were treated with compounds for 24 h and harvested for detection of luciferase activity and β-gal activity. All cells were incubated at 37 °C under 5% CO2 in a humidified incubator [5].

## CN(C)CCOc1ccc(/C(=C(/CCCO)c2ccccc2)c2ccc(O)cc2)cc1 [Compound 4, GSK5182, reference compound]
CYP1A2
  CYP Inhibition (% of Control), 1A2: 84 % of Control
CYP2C9
  CYP Inhibition (% of Control), 2C9: 73 % of Control
CYP2C19
  CYP Inhibition (% of Control), 2C19: 78 % of Control
CYP2D6
  CYP Inhibition (% of Control), 2D6: 82 % of Control
CYP3A
  CYP Inhibition (% of Control), 3A4: 83 % of Control
[1]
  MS (%), Human (percent of parent compound remaining): 43%
[2]
  MS (%), Dog (percent of parent compound remaining): less than 10%
[3]
  MS (%), Rat (percent of parent compound remaining): 26%
[4]
  MS (%), Mouse (percent of parent compound remaining): less than 10%

## COCCC/C(=C(\c1ccc(O)cc1)c1ccc(OCCN(C)C)cc1)c1cccnc1 [Compound 13a, (Z)-4-(1-(4-(2-(Dimethylamino)ethoxy)phenyl)-5-methoxy-2-(pyridin-3-yl)pent-1-en-1-yl)phenol]
ERRγ [5]
  IC50: 0.99 µM
ERRγ [6]
  ERRγ functional activity in the cellular system (in words): comparable regression of the ERRγ transcriptional activity

## COCCC/C(=C(\c1ccc(O)cc1)c1ccc(OCCN(C)C)cc1)c1ccncc1 [Compound 13b, (Z)-4-(1-(4-(2-(Dimethylamino)ethoxy)phenyl)-5-methoxy-2-(pyridin-4-yl)pent-1-en-1-yl)phenol]
ERRγ [5]
  IC50: > 10 µM
ERRγ [6]
  inhibition at 10 µM: ~50%

## COCCC/C(=C(\c1ccc(O)cc1)c1ccc(OCCN(C)C)cc1)c1cnn(C)c1 [Compound 13c, (Z)-4-(1-(4-(2-(Dimethylamino)ethoxy)phenyl)-5-methoxy-2-(1-methyl-1H-pyrazol-4-yl)pent-1-en-1-yl)-phenol]
ERRγ [5]
  IC50: > 10 µM
ERRγ [6]
  inhibition at 10 µM: ~50%

## CN(C)CCOc1ccc(/C(=C/CCCO)c2ccc(O)cc2)cc1 [Compound 15a, (E)-4-(1-(4-(2-(Dimethylamino)ethoxy)phenyl)-5-hydroxypent-1-en-1-yl)phenol]
ERRγ [5]
  IC50: > 10 µM
ERRγ [6]
  inhibition at 10 µM: ~0%

## CN(C)CCOc1ccc(/C(=C(/CCCO)c2ccc(O)cc2)c2ccc(O)cc2)cc1 [Compound 15b, (Z)-4,4′-(1-(4-(2-(Dimethylamino)ethoxy)phenyl)-5-hydroxypent-1-ene-1,2-diyl)diphenol]
ERRγ [5]
  IC50: 2.32 µM

## COc1ccc(/C(CCCO)=C(/c2ccc(O)cc2)c2ccc(OCCN(C)C)cc2)cn1 [Compound 15c, (Z)-4-(1-(4-(2-(Dimethylamino)ethoxy)phenyl)-5-hydroxy-2-(6-methoxypyridin-3-yl)pent-1-en-1-yl)phenol]
ERRγ [5]
  IC50: > 10 µM
ERRγ [6]
  inhibition at 10 µM: ~50%

## CN(C)CCOc1ccc(/C(=C(/CCCO)c2cccnc2)c2ccc(O)cc2)cc1 [Compound 15d, (Z)-4-(1-(4-(2-(Dimethylamino)ethoxy)phenyl)-5-hydroxy-2-(pyridin-3-yl)pent-1-en-1-yl)phenol]
ERRγ [5]
  IC50: 3.1 µM

## CN(C)CCOc1ccc(/C(=C(/CCCO)c2ccnc(F)c2)c2ccc(O)cc2)cc1 [Compound 15e, (Z)-4-(1-(4-(2-(Dimethylamino)ethoxy)phenyl)-2-(2-fluoropyridin-4-yl)-5-hydroxypent-1-en-1-yl)phenol]
ERRγ [5]
  IC50: 5.35 µM
ERRγ [6]
  ERRγ functional activity in the cellular system (in words): comparable regression of the ERRγ transcriptional activity

## CN(C)CCOc1ccc(/C(=C(/CCCO)c2ccc(N3CCOCC3)nc2)c2ccc(O)cc2)cc1 [Compound 15f, (Z)-4-(1-(4-(2-(Dimethylamino)ethoxy)phenyl)-5-hydroxy-2-(6-morpholinopyridin-3-yl)pent-1-en-1-yl)phenol]
ERRγ [5]
  IC50: > 10 µM
ERRγ [6]
  ERRγ functional activity in the cellular system (in words): partial agonistic activity

## CN(C)CCOc1ccc(/C(=C(/CCCO)c2ccc3nccn3c2)c2ccc(O)cc2)cc1 [Compound 15i, (Z)-4-(1-(4-(2-(Dimethylamino)ethoxy)phenyl)-5-hydroxy-2-(imidazo[1,2-a]pyridin-6-yl)pent-1-en-1-yl)phenol]
ERRγ [5]
  IC50: > 10 µM
ERRγ [6]
  inhibition at 10 µM: ~0%

## CN(C)CCOc1ccc(/C(=C(/CCCO)c2ccc3ccncc3c2)c2ccc(O)cc2)cc1 [Compound 15j, (Z)-4-(1-(4-(2-(Dimethylamino)ethoxy)phenyl)-5-hydroxy-2-(isoquinolin-7-yl)pent-1-en-1-yl)phenol]
ERRγ [5]
  IC50: 4.71 µM

## COCCC/C(=C(\c1ccc(O)cc1)c1ccc(OCCN(C)C)c(C(F)(F)F)c1)c1cccnc1 [Compound 16]
ERRγ [5]
  ERRγ, IC50 (binding inhibition of ERRγ binding activity): no affinity
  IC50: > 10 µM
ERRγ [6]
  inhibition at 10 µM: ~0%

## COCCC/C(=C(\c1ccc(O)cc1)c1ccc(OCCN(C)C)cc1)c1ccc(C(C)C)nc1 [Compound 17, (Z)-4-(1-(4-(2-(Dimethylamino)ethoxy)phenyl)-2-(6-isopropylpyridin-3-yl)-5-methoxypent-1-en-1-yl)phenol]
ERRγ [5]
  IC50: > 10 µM
ERRγ [6]
  inhibition at 10 µM: ~50%
